Reference: patent US20240150377A1, “MODULATORS OF CYSTIC FIBROSIS TRANSMEMBRANE CONDUCTANCE REGULATOR” (VERTEX PHARMACEUTICALS INCORPORATED, priority 2020, published 2024)

What was measured:
CFTR [1] = target: T1, CFTR (Homo sapiens, UniProt P13569); assay: Membrane potential dye, Enteroid Assay A; assay type: cell-based; conditions: for Ent. A Max Activity: chloride transport as % of triple combination control (Enteroid Assay A); for EC50: read-out: Ent. A EC50
Procedure, shortened: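 Human intestinal enteroids incubated 18-24 h at 37 °C with test compound, then loaded with 20 μM methyl oxonol (with CaCC inhibitors). Chloride transport triggered in chloride-free buffer with 10 μM forskolin, 100 μM IBMX, 300 nM Compound III; fluorescence read 15 min, expressed as % of a triple-combination corrector/potentiator control.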

CFTR [2] = target: T1, CFTR; assay: Membrane potential dye, Enteroid Assay B; assay type: cell-based; conditions: for Ent. B Max Activity: chloride transport as % of triple combination control (Enteroid Assay B); for EC50: read-out: Ent. B EC50
Procedure, shortened: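 Human intestinal enteroids were treated with compound in maintenance medium for 18-24 h at 37° C, then loaded with methyl oxonol membrane-potential dye (25 min, room temperature). Chloride transport was triggered in chloride-free buffer with 10 μM forskolin, 100 μM IBMX and 300 nM Compound III, fluorescence read 15 min; expressed as % of triple-combination control.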

[3] = Table 6, human enteroid cells, 18-24 hours, acute 10 μM forskolin and 300 nM ivacaftor
[4] = Table 8, human enteroid cells, 18-24 hours, acute 10 μM forskolin and 300 nM ivacaftor
[5] = Table 7, human enteroid cells, 18-24 hours, acute 10 μM forskolin and 300 nM ivacaftor

T1 sequence (P13569 with tags, fused parts or gaps DEL508-508): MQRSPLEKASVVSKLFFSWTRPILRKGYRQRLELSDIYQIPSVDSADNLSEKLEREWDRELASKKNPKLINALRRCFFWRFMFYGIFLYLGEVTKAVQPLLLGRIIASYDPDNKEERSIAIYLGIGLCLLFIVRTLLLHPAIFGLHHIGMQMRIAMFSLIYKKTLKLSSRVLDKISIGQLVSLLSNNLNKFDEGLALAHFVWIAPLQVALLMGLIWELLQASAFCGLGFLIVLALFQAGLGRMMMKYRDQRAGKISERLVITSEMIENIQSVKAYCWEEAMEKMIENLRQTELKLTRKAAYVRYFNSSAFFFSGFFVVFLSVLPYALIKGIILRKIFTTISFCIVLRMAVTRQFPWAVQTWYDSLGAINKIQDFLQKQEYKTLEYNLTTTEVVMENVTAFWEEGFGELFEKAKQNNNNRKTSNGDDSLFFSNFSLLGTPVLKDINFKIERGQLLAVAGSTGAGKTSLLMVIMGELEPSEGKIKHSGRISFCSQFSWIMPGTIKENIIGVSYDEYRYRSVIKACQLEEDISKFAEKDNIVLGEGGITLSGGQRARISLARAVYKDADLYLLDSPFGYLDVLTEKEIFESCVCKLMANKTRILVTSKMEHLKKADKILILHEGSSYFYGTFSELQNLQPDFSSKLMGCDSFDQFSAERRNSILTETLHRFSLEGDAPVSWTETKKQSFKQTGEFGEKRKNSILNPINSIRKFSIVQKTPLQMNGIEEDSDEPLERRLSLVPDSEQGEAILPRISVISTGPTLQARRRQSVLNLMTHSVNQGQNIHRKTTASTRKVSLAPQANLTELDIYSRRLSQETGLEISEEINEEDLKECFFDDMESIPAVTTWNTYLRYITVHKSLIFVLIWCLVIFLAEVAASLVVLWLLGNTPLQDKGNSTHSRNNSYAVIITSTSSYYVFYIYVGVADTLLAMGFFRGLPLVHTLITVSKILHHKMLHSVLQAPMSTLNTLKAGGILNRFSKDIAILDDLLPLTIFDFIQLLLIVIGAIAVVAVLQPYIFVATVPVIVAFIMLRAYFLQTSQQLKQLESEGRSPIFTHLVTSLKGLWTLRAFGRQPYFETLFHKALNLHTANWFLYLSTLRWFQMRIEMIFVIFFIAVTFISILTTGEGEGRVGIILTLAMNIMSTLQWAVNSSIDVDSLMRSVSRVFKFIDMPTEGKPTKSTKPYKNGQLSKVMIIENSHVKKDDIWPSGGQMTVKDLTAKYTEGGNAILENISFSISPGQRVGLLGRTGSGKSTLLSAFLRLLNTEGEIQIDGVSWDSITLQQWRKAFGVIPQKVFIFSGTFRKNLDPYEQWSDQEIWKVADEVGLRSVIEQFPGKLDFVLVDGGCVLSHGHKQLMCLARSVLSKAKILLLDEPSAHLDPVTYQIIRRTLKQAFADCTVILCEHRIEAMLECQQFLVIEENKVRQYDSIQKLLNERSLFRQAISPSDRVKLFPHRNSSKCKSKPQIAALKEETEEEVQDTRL

| Ent. B Max Activity (CFTR [2]; Table 8) | EC50 (CFTR [2]; [4]) | further results | SMILES |
| --- | --- | --- | --- |
|  |  | Ent. A Max Activity (CFTR [1]; Table 6): +++ (+++ is >60%); EC50 (CFTR [1]; [3]): < 1000 nM; Ent. B Max Activity (CFTR [2]; Table 6): +++ (+++ is >60%); EC50 (CFTR [2]; [3]): < 1000 nM | Cc1cccc(C)c1-c1cc2nc(n1)NS(=O)(=O)c1cccc(c1)C(=O)N(Cc1ncccn1)[C@H](CC(C)C)CO2 [Compound 77, (11R)-6-(2,6-Dimethylphenyl)-11-isobutyl-2,2-dioxo-12-(pyrimidin-2-ylmethyl)-9-oxa-2λ^6-thia-3,5,12,19-tetrazatricyclo[12.3.1.14,8]nonadeca-1(18),4(19),5,7,14,16-hexaen-13-one] |
|  |  | Ent. A Max Activity (CFTR [1]; Table 6): +++ (+++ is >60%); EC50 (CFTR [1]; [3]): < 1000 nM; Ent. B Max Activity (CFTR [2]; Table 6): +++ (+++ is >60%); EC50 (CFTR [2]; [3]): < 1000 nM | COCCN1C(=O)c2cccc(c2)S(=O)(=O)Nc2nc(cc(-c3c(C)cccc3C)n2)OC[C@H]1CC(C)C [Compound 363] |
| +++ (+++ is >60%) | < 1000 nM |  | Cc1cccc(C)c1-c1cc2nc(n1)NS(=O)(=O)c1cccc(n1)C(=O)N(Cc1ccccc1)[C@H](CC(C)(C)C)CO2 [Compound 1085] |
| +++ (+++ is >60%) | < 1000 nM |  | Cc1cccc(C)c1-c1cc2nc(n1)NS(=O)(=O)c1cccc(c1)C(=O)N(Cc1cccnc1)[C@H](CC(C)(C)C)CO2 [Compound 1086] |
| +++ (+++ is >60%) | < 1000 nM |  | Cc1cccc(C)c1-c1cc2nc(n1)NS(=O)(=O)c1cccc(c1)C(=O)N(Cc1ccccc1)[C@H](CC(C)(C)C)CO2 [Compound 1087] |
| +++ (+++ is >60%) | < 1000 nM |  | Cc1cccc(C)c1-c1cc2nc(n1)NS(=O)(=O)c1cccc(c1)C(=O)N(Cc1ccnc(NC(=O)OC(C)C)c1)[C@H](CC(C)(C)C)CO2 [Compound 1088] |
| +++ (+++ is >60%) | < 1000 nM |  | Cc1cccc(C)c1-c1cc2nc(n1)NS(=O)(=O)c1cccc(c1)C(=O)N(Cc1ccc(C(C)(C)O)nc1)[C@H](CC(C)(C)C)CO2 [Compound 1089] |
| +++ (+++ is >60%) | < 1000 nM |  | Cc1cccc(C)c1-c1cc2nc(n1)NS(=O)(=O)c1cccc(n1)C(=O)N(Cc1cccnn1)[C@H](CC(C)(C)C)CO2 [Compound 1090] |
| +++ (+++ is >60%) | < 1000 nM |  | Cc1cccc(C)c1-c1cc2nc(n1)NS(=O)(=O)c1cccc(n1)C(=O)N(Cc1ccncn1)[C@H](CC(C)(C)C)CO2 [Compound 1091] |
| +++ (+++ is >60%) | < 1000 nM |  | Cc1cccc(C)c1-c1cc2nc(n1)NS(=O)(=O)c1cccc(n1)C(=O)N(Cc1ccc(C(C)(C)O)cc1)[C@H](CC(C)(C)C)CO2 [Compound 1092] |
| +++ (+++ is >60%) | < 1000 nM |  | Cc1cccc(C)c1-c1cc2nc(n1)NS(=O)(=O)c1cccc(c1)C(=O)N(CCCC(C)(C)O)[C@H](CC(C)(C)C)CO2 [Compound 1093] |
| +++ (+++ is >60%) | < 1000 nM |  | Cc1cccc(C)c1-c1cc2nc(n1)NS(=O)(=O)c1cccc(c1)C(=O)N(Cc1ccc(C(C)(C)O)cc1)[C@H](CC(C)(C)C)CO2 [Compound 1094] |
| +++ (+++ is >60%) | < 1000 nM |  | Cc1cccc(C)c1-c1cc2nc(n1)NS(=O)(=O)c1cccc(c1)C(=O)N(Cc1cncnc1)[C@H](CC(C)(C)C)CO2 [Compound 1095] |
| + (+ is <30%) |  |  | Cc1cccc(C)c1-c1cc2nc(n1)NS(=O)(=O)c1cccc(c1)C(=O)N(Cc1cnc(O)nc1)[C@H](CC(C)(C)C)CO2 [Compound 1096] |
| ++ (++ is 30-60%) | < 1000 nM |  | Cc1cccc(C)c1-c1cc2nc(n1)NS(=O)(=O)c1cccc(c1)C(=O)N(Cc1ccc(O)nn1)[C@H](CC(C)(C)C)CO2 [Compound 1097] |
| +++ (+++ is >60%) | < 1000 nM |  | Cc1cccc(C)c1-c1cc2nc(n1)NS(=O)(=O)c1cccc(c1)C(=O)N(Cc1ccncn1)[C@H](CC(C)(C)C)CO2 [Compound 1098] |
| +++ (+++ is >60%) | < 1000 nM |  | COc1cnc(CN2C(=O)c3cccc(c3)S(=O)(=O)Nc3nc(cc(-c4c(C)cccc4C)n3)OC[C@H]2CC(C)(C)C)cn1 [Compound 1099] |
| +++ (+++ is >60%) | < 1000 nM |  | Cc1cccc(C)c1-c1cc2nc(n1)NS(=O)(=O)c1cccc(c1)C(=O)N(Cc1cnccn1)[C@H](CC(C)(C)C)CO2 [Compound 1100] |
| +++ (+++ is >60%) | < 1000 nM |  | COc1ncc(CN2C(=O)c3cccc(c3)S(=O)(=O)Nc3nc(cc(-c4c(C)cccc4C)n3)OC[C@H]2CC(C)(C)C)cn1 [Compound 1101] |
| +++ (+++ is >60%) | < 1000 nM |  | Cc1cccc(C)c1-c1cc2nc(n1)NS(=O)(=O)c1cccc(c1)C(=O)N(Cc1cccc(CN(C)C)c1)[C@H](CC(C)C)CO2 [Compound 1102] |
|  |  | Ent. B Max Activity (CFTR [2]; Table 7): +++ (+++ is >60%); EC50 (CFTR [2]; [5]): < 1000 nM | Cc1cccc(C)c1-c1cc2nc(n1)NS(=O)(=O)c1cccc(c1)C(=O)N(CCOC(F)(F)F)[C@H](CC(C)C)CO2 [Compound 1103] |
|  |  | Ent. B Max Activity (CFTR [2]; Table 7): +++ (+++ is >60%); EC50 (CFTR [2]; [5]): < 1000 nM | Cc1cccc(C)c1-c1cc2nc(n1)NS(=O)(=O)c1cccc(c1)C(=O)N(CC#N)[C@H](CC(C)C)CO2 [Compound 1104] |
|  |  | Ent. B Max Activity (CFTR [2]; Table 7): +++ (+++ is >60%); EC50 (CFTR [2]; [5]): < 1000 nM | Cc1cccc(C)c1-c1cc2nc(n1)NS(=O)(=O)c1cccc(c1)C(=O)N(CCC(C)(C)C#N)[C@H](CC(C)C)CO2 [Compound 1105] |
|  |  | Ent. A Max Activity (CFTR [1]; Table 7): +++ (+++ is >60%); EC50 (CFTR [1]; [5]): 1000 to 3000 nM; Ent. B Max Activity (CFTR [2]; Table 7): ++ (++ is 30-60%); EC50 (CFTR [2]; [5]): 1000 to 3000 nM | Cc1cccc(C)c1-c1cc2nc(n1)NS(=O)(=O)c1cccc(c1)C(=O)N(Cc1ccncc1)[C@H](CC(C)C)CO2 [Compound 1106] |
| +++ (+++ is >60%) | < 1000 nM |  | Cc1cccc(C)c1-c1cc2nc(n1)NS(=O)(=O)c1cccc(c1)C(=O)N(Cc1ccc(C(=O)N(C)C)cn1)[C@H](CC(C)(C)C)CO2 [Compound 1110] |
|  |  | Ent. B Max Activity (%) (CFTR [2]; Table 9): ++ (++ is 30-60%); EC50 (CFTR [2]; Table 9): < 1000 nM | Cc1cccc(C)c1-c1cc2nc(n1)NS(=O)(=O)c1cccc(c1)C(=O)N(CCC1(C(F)(F)F)CC1)[C@@H]1CN(C3CC4(CCCCC4)C3)C[C@H]1O2 [Compound 1190, (3R,7R)-19-(2,6-Dimethylphenyl)-5-{spiro[3.5]nonan-2-yl}-8-{2-[1-(trifluoromethyl)cyclopropyl]ethyl}-2-oxa-15λ^6-thia-5,8,16,18,21-pentaazatetracyclo[15.3.1.110,14.03,7]docosa-1(20),10(22),11,13,17(21),18-hexaene-9,15,15-trione] |
|  |  | Ent. B Max Activity (%) (CFTR [2]; Table 9): +++ (+++ is >600%); EC50 (CFTR [2]; Table 9): < 1000 nM | Cc1cccc(C)c1-c1cc2nc(n1)NS(=O)(=O)c1cccc(c1)C(=O)N(CCC1CCOCC1)[C@@H]1CN(C3CC4(CCCC4)C3)C[C@H]1O2 [Compound 1191, (3R,7R)-19-(2,6-Dimethylphenyl)-8-[2-(oxan-4-yl)ethyl]-5-{spiro[3.4]octan-2-yl}-2-oxa-15λ^6-thia-5,8,16,18,21-pentaazatetracyclo[15.3.1.110,14.03,7]docosa-1(20),10(22),11,13,17(21),18-hexaene-9,15,15-trione] |
|  |  | Ent. A Max Activity (%) (CFTR [1]; Table 9): +++ (+++ is >600%); EC50 (CFTR [1]; Table 9): < 1000 nM; Ent. B Max Activity (%) (CFTR [2]; Table 9): ++ (++ is 30-60%); EC50 (CFTR [2]; Table 9): < 1000 nM | CCN1C(=O)c2cccc(c2)S(=O)(=O)Nc2nc(cc(-c3c(C)cccc3C)n2)O[C@@H]2CN(C3CC4(CCCC4)C3)C[C@H]21 [Compound 1192, (3R,7R)-19-(2,6-Dimethylphenyl)-8-ethyl-5-{spiro[3.4]octan-2-yl}-2-oxa-15λ^6-thia-5,8,16,18,21-pentaazatetracyclo[15.3.1.110,14.03,7]docosa-1(20),10(22),11,13,17(21),18-hexaene-9,15,15-trione] |
